Laboratory results as given in article PMC4281712, “ATPase-dependent auto-phosphorylation of the open condensin hinge diminishes DNA binding” (Open Biology, 2014).

Legend:
[1] = target: T1, Cut3–Cut14 (condensin SMC heterodimer; Cut3/SMC4–Cut14/SMC2) (Schizosaccharomyces pombe, UniProt P41003+P41004); test: inhibition of γ-32P labelling, autoradiography; format: biochemical; conditions: 1 mM nucleotide pre-incubated 5 min; ATP 8 nM hot, 50 nM cold; 30 min, 30 °C
T1 construct: full-length SMC heterodimer co-overproduced in S. pombe; C-terminal tags kept (Cut14-3HA-His6; Cut3 mutants 8Myc)
T1 sequence (P41004 1-1324): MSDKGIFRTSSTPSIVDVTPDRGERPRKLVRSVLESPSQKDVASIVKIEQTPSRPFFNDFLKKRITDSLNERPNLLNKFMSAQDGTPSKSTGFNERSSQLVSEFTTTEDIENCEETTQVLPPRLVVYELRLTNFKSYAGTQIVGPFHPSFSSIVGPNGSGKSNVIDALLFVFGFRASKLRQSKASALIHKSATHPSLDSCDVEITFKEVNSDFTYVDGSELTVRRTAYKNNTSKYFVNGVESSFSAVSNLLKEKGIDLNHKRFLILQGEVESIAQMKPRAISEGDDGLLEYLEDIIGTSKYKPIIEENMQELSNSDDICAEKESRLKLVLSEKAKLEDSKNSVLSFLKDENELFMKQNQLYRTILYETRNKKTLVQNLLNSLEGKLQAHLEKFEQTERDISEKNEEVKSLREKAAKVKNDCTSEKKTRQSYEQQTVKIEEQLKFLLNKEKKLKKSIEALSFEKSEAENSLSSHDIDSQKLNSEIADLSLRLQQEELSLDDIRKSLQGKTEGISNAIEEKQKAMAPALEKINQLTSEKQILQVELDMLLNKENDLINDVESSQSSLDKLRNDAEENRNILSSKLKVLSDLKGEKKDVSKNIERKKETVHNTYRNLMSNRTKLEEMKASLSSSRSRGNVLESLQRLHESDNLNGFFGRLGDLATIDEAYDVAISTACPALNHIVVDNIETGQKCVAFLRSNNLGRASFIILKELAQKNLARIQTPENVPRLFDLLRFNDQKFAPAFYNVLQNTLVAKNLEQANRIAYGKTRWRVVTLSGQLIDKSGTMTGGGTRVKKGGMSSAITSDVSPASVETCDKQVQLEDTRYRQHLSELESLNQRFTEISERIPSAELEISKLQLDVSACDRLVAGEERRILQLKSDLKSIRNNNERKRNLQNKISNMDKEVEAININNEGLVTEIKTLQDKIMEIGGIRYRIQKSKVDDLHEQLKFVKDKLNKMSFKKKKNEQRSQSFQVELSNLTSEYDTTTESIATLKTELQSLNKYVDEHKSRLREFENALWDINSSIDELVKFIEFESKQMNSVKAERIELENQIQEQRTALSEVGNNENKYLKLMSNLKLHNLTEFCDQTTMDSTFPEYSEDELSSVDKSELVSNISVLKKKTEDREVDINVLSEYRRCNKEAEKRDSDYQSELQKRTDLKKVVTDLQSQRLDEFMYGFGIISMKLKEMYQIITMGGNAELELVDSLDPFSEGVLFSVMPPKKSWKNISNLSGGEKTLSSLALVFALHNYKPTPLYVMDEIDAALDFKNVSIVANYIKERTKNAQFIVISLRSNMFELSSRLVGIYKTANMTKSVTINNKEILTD
T1 sequence (P41003 1-1172): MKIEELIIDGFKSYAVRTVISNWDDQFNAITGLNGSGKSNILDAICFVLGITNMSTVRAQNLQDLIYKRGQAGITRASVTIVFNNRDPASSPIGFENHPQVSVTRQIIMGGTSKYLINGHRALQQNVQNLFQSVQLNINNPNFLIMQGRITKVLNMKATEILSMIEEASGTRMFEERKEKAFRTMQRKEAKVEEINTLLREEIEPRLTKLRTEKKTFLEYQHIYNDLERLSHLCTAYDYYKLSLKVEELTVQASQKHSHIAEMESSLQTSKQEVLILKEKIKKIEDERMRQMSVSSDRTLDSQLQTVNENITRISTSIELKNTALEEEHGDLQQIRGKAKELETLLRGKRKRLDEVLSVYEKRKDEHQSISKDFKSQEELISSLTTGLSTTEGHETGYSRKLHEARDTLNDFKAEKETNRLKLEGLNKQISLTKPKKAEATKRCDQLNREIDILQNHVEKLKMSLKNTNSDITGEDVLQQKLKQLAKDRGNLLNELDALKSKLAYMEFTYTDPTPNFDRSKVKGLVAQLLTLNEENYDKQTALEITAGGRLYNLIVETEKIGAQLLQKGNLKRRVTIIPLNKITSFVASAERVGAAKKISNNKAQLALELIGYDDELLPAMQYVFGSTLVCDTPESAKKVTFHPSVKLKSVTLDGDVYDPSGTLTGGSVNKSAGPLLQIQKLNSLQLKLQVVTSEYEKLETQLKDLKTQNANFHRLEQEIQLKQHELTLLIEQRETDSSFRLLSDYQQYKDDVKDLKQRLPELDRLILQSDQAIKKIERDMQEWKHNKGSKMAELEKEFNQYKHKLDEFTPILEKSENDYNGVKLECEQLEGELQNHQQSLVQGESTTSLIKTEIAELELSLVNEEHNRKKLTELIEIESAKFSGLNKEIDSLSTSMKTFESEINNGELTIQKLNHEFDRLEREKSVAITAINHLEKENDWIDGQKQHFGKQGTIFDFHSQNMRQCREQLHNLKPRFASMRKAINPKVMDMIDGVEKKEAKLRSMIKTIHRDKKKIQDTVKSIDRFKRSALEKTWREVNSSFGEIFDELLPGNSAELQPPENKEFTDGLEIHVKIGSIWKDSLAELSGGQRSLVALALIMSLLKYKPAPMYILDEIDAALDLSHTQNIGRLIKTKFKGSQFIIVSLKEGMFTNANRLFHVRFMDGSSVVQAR

[2] = target: T1, Cut3–Cut14 (condensin SMC heterodimer; Cut3/SMC4–Cut14/SMC2); test: thiophosphorylation, PNBM alkylation, anti-thiophosphate ester western blot; format: biochemical; conditions: covalent thiophosphoryl transfer to Cut3; 10 mM ATPγS

Nc1ncnc2c1ncn2[C@@H]1O[C@H](COP(=O)(O)OP(=O)(O)NP(=O)(O)O)[C@@H](O)[C@H]1O [AMP-PNP]
inhibition of γ-32P labelling, autoradiography [1]: Some labelling occurred in an excess of AMP-PNP

Nc1ncnc2c1ncn2[C@@H]1O[C@H](COP(=O)(O)OP(=O)(O)OP(O)(O)=S)[C@@H](O)[C@H]1O [ATPγS]
thiophosphorylation, PNBM alkylation, anti-thiophosphate ester western blot [2]: Antibody against ATPγS detected Cut3 protein in the heterodimer after incubation in the presence of ATPγS
